Results taken from patent US12077503B2, “Substituted cyclic amides and their use as herbicides” (FMC CORPORATION, priority 2015, dated 2024).

How the values were obtained:
Format in all cases: in vivo
[1] = tested on: Galium (catchweed bedstraw, Galium aparine); test: Test A postemergence; conditions: Galium, post-emergence, 240 h, 125 g ai/ha, Postemergence; visual injury after approximately 10 d; 0 to 100 scale where 0 is no effect and 100 is complete control; read-out: Plant response rating, Galium
Summary of the method: (§1)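 Each rating is a visual injury score from 0 to 100 given about 10 d after treatment, judged against untreated controls kept alongside in the greenhouse. In loam soil–sand blend, seeds got a preemergence directed soil spray, while postemergence plants were 2 to 10 cm tall at spraying.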

[2] = tested on: ryegrass, Italian (Italian ryegrass, Lolium multiflorum); test: Test A postemergence; conditions: Lolium multiflorum, post-emergence, 240 h, 125 g ai/ha, Postemergence; visual injury after approximately 10 d; 0 to 100 scale where 0 is no effect and 100 is complete control; read-out: Plant response rating, Ryegrass, Italian
Summary of the method: as §1

[3] = tested on: blackgrass (Alopecurus myosuroides); test: Test A postemergence; conditions: Alopecurus myosuroides, post-emergence, 240 h, 125 g ai/ha, Postemergence; visual injury after approximately 10 d; 0 to 100 scale where 0 is no effect and 100 is complete control; read-out: Plant response rating, Blackgrass
Summary of the method: as §1

corn (Zea mays) = test: Test A postemergence; conditions: Zea mays, post-emergence, 240 h, 125 g ai/ha, Postemergence; visual injury after approximately 10 d; 0 to 100 scale where 0 is no effect and 100 is complete control
Summary of the method: as §1

Kochia (Kochia scoparia) [4] = test: Test A postemergence; conditions: Bassia scoparia, post-emergence, 240 h, 125 g ai/ha, Postemergence; visual injury after approximately 10 d; 0 to 100 scale where 0 is no effect and 100 is complete control; read-out: Plant response rating, Kochia
Summary of the method: as §1

[5] = tested on: wheat (Triticum aestivum); test: Test A postemergence; conditions: Triticum aestivum, post-emergence, 240 h, 125 g ai/ha, Postemergence; visual injury after approximately 10 d; 0 to 100 scale where 0 is no effect and 100 is complete control; read-out: Plant response rating, Wheat
Summary of the method: as §1

[6] = tested on: giant foxtail (Setaria faberii); test: Test A postemergence; conditions: Setaria faberi, post-emergence, 240 h, 125 g ai/ha, Postemergence; visual injury after approximately 10 d; 0 to 100 scale where 0 is no effect and 100 is complete control; read-out: Plant response rating, Foxtail, Giant
Summary of the method: as §1

[7] = tested on: barnyardgrass (Echinochloa crus-galli); test: Test A postemergence; conditions: Echinochloa crus-galli, post-emergence, 240 h, 125 g ai/ha, Postemergence; visual injury after approximately 10 d; 0 to 100 scale where 0 is no effect and 100 is complete control; read-out: Plant response rating, Barnyardgrass
Summary of the method: as §1

[8] = tested on: pigweed (Amaranthus retroflexus); test: Test A postemergence; conditions: Amaranthus retroflexus, post-emergence, 240 h, 125 g ai/ha, Postemergence; visual injury after approximately 10 d; 0 to 100 scale where 0 is no effect and 100 is complete control; read-out: Plant response rating, Pigweed
Summary of the method: as §1

[9] = tested on: ragweed (common ragweed, Ambrosia elatior); test: Test A postemergence; conditions: Ambrosia artemisiifolia, post-emergence, 240 h, 125 g ai/ha, Postemergence; visual injury after approximately 10 d; 0 to 100 scale where 0 is no effect and 100 is complete control; read-out: Plant response rating, Ragweed
Summary of the method: as §1

[10] = tested on: ducksalad (Heteranthera limosa); test: Test B flooded paddy test; conditions: Heteranthera limosa, Flood, 250 g ai/ha; scale of 0 to 100 where 0 is no effect and 100 is complete control; read-out: Ducksalad plant response rating
Summary of the method: (§2)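 Visual ratings (0 none to 100 complete control) are relative to untreated plants, taken 13–15 d after treatment in a greenhouse. Test material went straight into floodwater standing 3 cm above the soil, kept constant, on plants at the 2-leaf stage.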

rice (Oryra sativa) = test: Test B flooded paddy test; conditions: Oryza sativa, Flood, 250 g ai/ha; scale of 0 to 100 where 0 is no effect and 100 is complete control; read-out: Rice plant response rating
Summary of the method: as §2

[11] = tested on: sedge, umbrella (small-flower umbrella sedge, Cyperus difformis); test: Test B flooded paddy test; conditions: Cyperus difformis, Flood, 250 g ai/ha; scale of 0 to 100 where 0 is no effect and 100 is complete control; read-out: Sedge, Umbrella plant response rating
Summary of the method: as §2

[12] = tested on: barnyardgrass (Echinochloa crus-galli); test: Test B flooded paddy test; conditions: Echinochloa crus-galli, Flood, 250 g ai/ha; scale of 0 to 100 where 0 is no effect and 100 is complete control; read-out: Barnyardgrass plant response rating
Summary of the method: as §2

[13] = tested on: ryegrass, Italian (Italian ryegrass, Lolium multiflorum); test: Test A preemergence; conditions: Lolium multiflorum, pre-emergence, 240 h
Summary of the method: as §1

Kochia (Kochia scoparia) [14] = test: Test A preemergence; conditions: Bassia scoparia, pre-emergence, 240 h
Summary of the method: as §1

[15] = tested on: giant foxtail (Setaria faberii); test: Test A preemergence; conditions: Setaria faberi, pre-emergence, 240 h
Summary of the method: as §1

[16] = tested on: barnyardgrass (Echinochloa crus-galli); test: Test A preemergence; conditions: Echinochloa crus-galli, pre-emergence, 240 h
Summary of the method: as §1

[17] = tested on: pigweed (Amaranthus retroflexus); test: Test A preemergence; conditions: Amaranthus retroflexus, pre-emergence, 240 h
[18] = tested on: ragweed (common ragweed, Ambrosia elatior); test: Test A preemergence; conditions: Ambrosia artemisiifolia, pre-emergence, 240 h
Summary of the method: as §1

CCOc1cccc([C@H]2CN(C)C(=O)[C@@H]2C(=O)Nc2ccccc2F)c1 [Compound 955]
pest or weed control at 125 g/ha [1]: 20% | pest or weed control at 125 g/ha [2]: 30% | pest or weed control at 125 g/ha [3]: 0% | Corn plant response rating (crop injury, 0 = no effect, 100 = complete kill) at 125 g/ha (corn (Zea mays)): 0% | pest or weed control at 125 g/ha (Kochia (Kochia scoparia) [4]): 20% | plant injury at 125 g/ha [5]: 0% | pest or weed control at 125 g/ha [6]: 80% | pest or weed control at 125 g/ha [7]: 90% | pest or weed control at 125 g/ha [8]: 0% | pest or weed control at 125 g/ha [9]: 0% | pest or weed control at 250 g/ha [10]: 90% | pest or weed control at 250 g/ha (rice (Oryra sativa)): 0% | pest or weed control at 250 g/ha [11]: 0% | pest or weed control at 250 g/ha [12]: 70% | pest or weed control at 125 g/ha ([13]; 125 g ai/ha, Preemergence, visual injury rating after approximately 10 d, read-out: Ryegrass, Italian plant response rating (0 to 100 scale, 0 is no effect, 100 is complete control)): 70% | pest or weed control at 500 g/ha ([13]; 500 g ai/ha, preemergence, visual injury rating about 10 d after treatment, 0 to 100 scale (0 no effect, 100 complete control), read-out: Ryegrass, Italian plant response rating): 60% | pest or weed control at 125 g/ha (Kochia (Kochia scoparia) [14]; 125 g ai/ha, Preemergence, visual injury rating after approximately 10 d, read-out: Kochia plant response rating (0 to 100 scale, 0 is no effect, 100 is complete control)): 30% | pest or weed control at 500 g/ha (Kochia (Kochia scoparia) [14]; 500 g ai/ha, preemergence, visual injury rating about 10 d after treatment, 0 to 100 scale (0 no effect, 100 complete control), read-out: Kochia plant response rating): 70% | pest or weed control at 125 g/ha ([15]; 125 g ai/ha, Preemergence, visual injury rating after approximately 10 d, read-out: Foxtail, Giant plant response rating (0 to 100 scale, 0 is no effect, 100 is complete control)): 100% | pest or weed control at 500 g/ha ([15]; 500 g ai/ha, preemergence, visual injury rating about 10 d after treatment, 0 to 100 scale (0 no effect, 100 complete control), read-out: Foxtail, Giant plant response rating): 100% | pest or weed control at 125 g/ha ([16]; 125 g ai/ha, Preemergence, visual injury rating after approximately 10 d, read-out: Barnyardgrass plant response rating (0 to 100 scale, 0 is no effect, 100 is complete control)): 100% | pest or weed control at 500 g/ha ([16]; 500 g ai/ha, preemergence, visual injury rating about 10 d after treatment, 0 to 100 scale (0 no effect, 100 complete control), read-out: Barnyardgrass plant response rating): 100% | pest or weed control at 125 g/ha ([17]; 125 g ai/ha, Preemergence, visual injury rating after approximately 10 d, read-out: Pigweed plant response rating (0 to 100 scale, 0 is no effect, 100 is complete control)): 0% | pest or weed control at 500 g/ha ([17]; 500 g ai/ha, preemergence, visual injury rating about 10 d after treatment, 0 to 100 scale (0 no effect, 100 complete control), read-out: Pigweed plant response rating): 0% | pest or weed control at 125 g/ha ([18]; 125 g ai/ha, Preemergence, visual injury rating after approximately 10 d, read-out: Ragweed plant response rating (0 to 100 scale, 0 is no effect, 100 is complete control)): 0% | pest or weed control at 500 g/ha ([18]; 500 g ai/ha, preemergence, visual injury rating about 10 d after treatment, 0 to 100 scale (0 no effect, 100 complete control), read-out: Ragweed plant response rating): 30%
